In ChEMBL document CHEMBL1126838 (J Med Chem, 1993):

Biological target: Tyrosine-protein kinase Lck (Homo sapiens, UniProt P06239)
Test: Tested in vitro for the inhibition of protein-tyrosine kinase p56lck using angiotensin I (1.2 mM) and [gamma-32P]-ATP (50 µM)

Tyrosine-protein kinase Lck, sequence (P06239 whole entry): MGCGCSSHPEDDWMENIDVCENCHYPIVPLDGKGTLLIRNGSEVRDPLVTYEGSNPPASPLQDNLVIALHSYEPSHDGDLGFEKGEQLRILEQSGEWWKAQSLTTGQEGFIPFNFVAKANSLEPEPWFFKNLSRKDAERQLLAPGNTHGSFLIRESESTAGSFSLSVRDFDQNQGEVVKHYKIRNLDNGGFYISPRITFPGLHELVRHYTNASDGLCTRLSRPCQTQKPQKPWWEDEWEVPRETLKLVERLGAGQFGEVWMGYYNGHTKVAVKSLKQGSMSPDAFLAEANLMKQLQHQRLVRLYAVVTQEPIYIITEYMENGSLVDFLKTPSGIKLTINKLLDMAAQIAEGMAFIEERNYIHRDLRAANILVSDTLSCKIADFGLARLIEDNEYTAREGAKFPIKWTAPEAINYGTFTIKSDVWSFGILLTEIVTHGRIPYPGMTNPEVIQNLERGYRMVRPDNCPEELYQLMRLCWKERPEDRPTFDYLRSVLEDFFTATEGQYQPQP

IC50	Compound
487 µM	Oc1cc(O)cc(CCc2cc(O)cc(O)c2)c1
16 µM	Oc1cc(O)cc(/C=C/c2cc(O)cc(O)c2)c1
1560 µM	Oc1cc(O)cc(CCc2ccc(O)c(O)c2)c1
74 µM	Oc1ccc(/C=C/c2ccc(O)c(O)c2)cc1O
17 µM	Oc1cccc(/C=C/c2cc(O)cc(O)c2)c1

Second part, the compound before the results:

Compound	IC50
Oc1cccc(/C=C/c2cccc(O)c2)c1	234 µM
C(=C\c1cc(OCc2ccccc2)cc(OCc2ccccc2)c1)/c1ccc(OCc2ccccc2)cc1	> 2030 µM
C(=C\c1ccc(OCc2ccccc2)c(OCc2ccccc2)c1)/c1ccc(OCc2ccccc2)cc1	> 2030 µM
C(=C\c1cc(OCc2ccccc2)cc(OCc2ccccc2)c1)/c1cccc(OCc2ccccc2)c1	> 2030 µM
C(=C\c1cc(OCc2ccccc2)cc(OCc2ccccc2)c1)/c1ccccc1	> 2030 µM
C(=C\c1ccc(OCc2ccccc2)c(OCc2ccccc2)c1)/c1ccccc1	> 2030 µM
Oc1cccc(/C=C/c2ccc(O)c(O)c2)c1	58 µM
C(=C\c1ccc(OCc2ccccc2)c(OCc2ccccc2)c1)/c1cccc(OCc2ccccc2)c1	> 2030 µM
Oc1ccc(/C=C/c2ccc(O)c(O)c2)cc1	19 µM
Oc1ccc(/C=C/c2ccccc2)cc1O [(E)-3,4-STILBENDIOL]	203 µM
Oc1cc(O)cc(/C=C/c2ccccc2)c1 [PINOSYLVIN]	193 µM
Oc1ccc(/C=C/c2cc(O)cc(O)c2)cc1 [RESVERATROL]	112 µM
